Values of other authors in US20180256623A1, “COMPOSITIONS AND METHOD FOR REGULATING ADIPOSE TISSUE LIPOLYSIS, INSULIN-RESISTANCE, AND HYPERGLYCEMIA” (University of Virginia Patent Foundation, priority 2015, published 2018).

Tested on: 3T3-L1
Details: Table 1, 4-substituted 5-(2H)-isoxazolones; means of three experiments; cited from earlier work

SMILES	IC50 [nM]
Cc1c(Sc2ccc(Cl)cc2)c(=O)on1C(=O)N1CCCCC1 [Compound 1]	135
Cc1c(Sc2ccccc2)c(=O)on1C(=O)N1CCCCC1 [Compound 3]	190
Cc1c(Cc2ccccc2)c(=O)on1C(=O)N1CCCCC1 [Compound 4]	90
Cc1c(C)n(C(=O)N2CCCCC2)oc1=O [Compound 5]	655
CCc1c(C)n(C(=O)N2CCCCC2)oc1=O [Compound 6]	325
Cc1c(C(C)C)c(=O)on1C(=O)N1CCCCC1 [Compound 8]	75
Cc1c(CC(C)C)c(=O)on1C(=O)N1CCCCC1 [Compound 9]	32
Cc1c(C(C)(C)C)c(=O)on1C(=O)N1CCCCC1 [Compound 10]	90
Cc1c(C2CCCC2)c(=O)on1C(=O)N1CCCCC1 [Compound 11]	22
Cc1c(C2CCCCC2)c(=O)on1C(=O)N1CCCCC1 [Compound 12]	27
Cc1c(C2CCOCC2)c(=O)on1C(=O)N1CCCCC1 [Compound 13]	200
Cc1c(C2CCSCC2)c(=O)on1C(=O)N1CCCCC1 [Compound 14]	98
Cc1c(C2CCSCC2)c(=O)on1C(=O)N1CCCCC1 [Compound 15]	380
COCCc1c(C)n(C(=O)N2CCCCC2)oc1=O [Compound 16]	180
Cc1c(CCOc2ccccc2)c(=O)on1C(=O)N1CCCCC1 [Compound 17]	2
Cc1c(-c2ccccc2)c(=O)on1C(=O)N1CCCCC1 [Compound 19]	150

Same assay, conditions: Table 2, acyclic ureas; means of three experiments; Na = not active; cited from earlier work

SMILES	IC50 [nM]
Cc1c(C(C)C)c(=O)on1C(=O)N(C)C1CCCCC1 [Compound 24]	> 1000
Cc1c(C(C)C)c(=O)on1C(=O)N(C)Cc1ccccc1 [Compound 25]	67
Cc1c(C(C)C)c(=O)on1C(=O)N(C)Cc1ccccc1F [Compound 26]	10
Cc1c(C(C)C)c(=O)on1C(=O)N(C)Cc1ccc(F)cc1 [Compound 28]	1000
Cc1c(C(C)C)c(=O)on1C(=O)N(C)Cc1ccco1 [Compound 30]	9
Cc1c(C(C)C)c(=O)on1C(=O)N(C)CCc1ccccc1 [Compound 33]	300
Cc1c(C(C)C)c(=O)on1C(=O)N(C)c1ccc(Cl)cc1 [Compound 37]	> 1000
CCN(CC)C(=O)n1oc(=O)c(C(C)C)c1C [Compound 39]	600

Same assay, conditions: Table 3, cyclic amine-derived ureas; means of three experiments; Na = not active; cited from earlier work

SMILES	IC50 [nM]
Cc1c(C(C)C)c(=O)on1C(=O)N1CCCCC1 [Compound 8]	75
Cc1c(C(C)C)c(=O)on1C(=O)N1CCCC1 [Compound 41]	28
Cc1c(C(C)C)c(=O)on1C(=O)N1CC=CC1 [Compound 43]	120
Cc1c(C(C)C)c(=O)on1C(=O)N1CCN(C)CC1 [Compound 47]	> 1000
Cc1c(C(C)C)c(=O)on1C(=O)N1CCN(Cc2ccccc2)CC1 [Compound 48]	56
Cc1c(C(C)C)c(=O)on1C(=O)N1CCN(c2ccccc2)CC1 [Compound 49]	27
Cc1c(C(C)C)c(=O)on1C(=O)N1CCOCC1 [Compound 53]	> 1000
Cc1c(C(C)C)c(=O)on1C(=O)N1CCSCC1 [Compound 54]	290
Cc1c(C(C)C)c(=O)on1C(=O)N1CCCCCC1 [Compound 55]	215

Same assay, conditions: piperidine derivatives; means of three experiments; Na = not active; cited from earlier work

SMILES	IC50 [nM]
Cc1c(C(C)C)c(=O)on1C(=O)N1CCCCC1 [Compound 8]	75
Cc1c(C(C)C)c(=O)on1C(=O)N1CCCCC1C (centres unmarked) [Compound 57]	400
Cc1c(C(C)C)c(=O)on1C(=O)N1CCC[C@@H](C)C1 [Compound 58]	187
Cc1c(C(C)C)c(=O)on1C(=O)N1CCC[C@H](C)C1 [Compound 59]	28
Cc1c(C(C)C)c(=O)on1C(=O)N1CCCC(CO)C1 (centres unmarked) [Compound 60]	800
CCOC(=O)C1CCCN(C(=O)n2oc(=O)c(C(C)C)c2C)C1 (centres unmarked) [Compound 62]	170
Cc1c(C(C)C)c(=O)on1C(=O)N1CCC(C)CC1 [Compound 63]	40
CCCCc1c(C)n(C(=O)N2CCC(C)CC2)oc1=O [Compound 64]	10
Cc1c(C2CCCCC2)c(=O)on1C(=O)N1CCC(C)CC1 [Compound 66]	20
CCOCCc1c(C)n(C(=O)N2CCC(C)CC2)oc1=O [Compound 67]	20
Cc1c(C2CCSCC2)c(=O)on1C(=O)N1CCC(C)CC1 [Compound 68]	24
Cc1c(C(C)C)c(=O)on1C(=O)N1CCC(c2ccccc2)CC1 [Compound 70]	33
Cc1c(C2CCCC2)c(=O)on1C(=O)N1CCC(c2ccccc2)CC1 [Compound 72]	8
COCCc1c(C)n(C(=O)N2CCC(c3ccccc3)CC2)oc1=O [Compound 73]	5
Cc1c(C(C)C)c(=O)on1C(=O)N1CCC(c2cccc(F)c2)CC1 [Compound 74]	4
COCCc1c(C)n(C(=O)N2CCC(c3cccc(F)c3)CC2)oc1=O [Compound 75]	0.2
COCCc1c(C)n(C(=O)N2CCC(c3cccc(C)c3)CC2)oc1=O [Compound 76]	4
Cc1ccc(C2CCN(C(=O)n3oc(=O)c(C(C)C)c3C)CC2)cc1 [Compound 77]	246
Cc1c(C(C)C)c(=O)on1C(=O)N1CCC(=O)CC1 [Compound 83]	150
Cc1c(C(C)C)c(=O)on1C(=O)N1CC(C)CCC1C (centres unmarked) [Compound 88]	> 1000
Cc1c(C(C)C)c(=O)on1C(=O)N1CC(C)CC(C)C1 (centres unmarked) [Compound 90]	140
Cc1c(C(C)C)c(=O)on1C(=O)N1CCC(O)(c2ccccc2)CC1 [Compound 92]	> 1000

Molecular target: T1, HSL (Homo sapiens, UniProt Q05469)
T1 sequence (Q05469 1-1076): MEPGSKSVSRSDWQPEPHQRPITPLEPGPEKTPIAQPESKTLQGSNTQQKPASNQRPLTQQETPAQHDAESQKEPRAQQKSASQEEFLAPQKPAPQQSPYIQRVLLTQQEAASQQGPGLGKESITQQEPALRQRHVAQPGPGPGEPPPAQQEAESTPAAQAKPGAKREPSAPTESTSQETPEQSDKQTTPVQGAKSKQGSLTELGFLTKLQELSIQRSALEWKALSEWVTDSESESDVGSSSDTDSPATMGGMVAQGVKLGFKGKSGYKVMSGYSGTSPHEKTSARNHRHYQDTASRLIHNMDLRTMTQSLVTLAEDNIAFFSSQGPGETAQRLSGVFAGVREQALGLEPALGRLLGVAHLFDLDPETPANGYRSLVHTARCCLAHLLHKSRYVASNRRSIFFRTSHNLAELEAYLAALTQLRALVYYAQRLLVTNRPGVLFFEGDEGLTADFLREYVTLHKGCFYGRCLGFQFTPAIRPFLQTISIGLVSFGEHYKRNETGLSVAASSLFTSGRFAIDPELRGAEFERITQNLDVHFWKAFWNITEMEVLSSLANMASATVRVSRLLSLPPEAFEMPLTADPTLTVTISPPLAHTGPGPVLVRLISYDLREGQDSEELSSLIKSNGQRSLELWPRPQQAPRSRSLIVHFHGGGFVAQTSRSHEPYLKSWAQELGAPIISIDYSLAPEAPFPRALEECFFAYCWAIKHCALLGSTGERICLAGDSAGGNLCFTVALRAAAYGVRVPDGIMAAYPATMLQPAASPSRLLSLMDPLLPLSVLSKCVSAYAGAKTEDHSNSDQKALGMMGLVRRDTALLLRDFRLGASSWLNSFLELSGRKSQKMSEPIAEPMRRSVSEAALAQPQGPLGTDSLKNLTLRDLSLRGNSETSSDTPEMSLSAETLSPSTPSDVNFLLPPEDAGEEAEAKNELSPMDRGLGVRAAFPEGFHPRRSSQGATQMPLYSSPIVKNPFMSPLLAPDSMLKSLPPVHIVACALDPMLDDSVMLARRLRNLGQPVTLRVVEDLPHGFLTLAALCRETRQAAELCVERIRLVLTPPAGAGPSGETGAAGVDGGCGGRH
Details: Table 1, 4-substituted 5-(2H)-isoxazolones; means of three experiments; cited from earlier work

SMILES	IC50 [nM]
Cc1c(C2CCSCC2)c(=O)on1C(=O)N1CCCCC1 [Compound 15]	55
Cc1c(-c2ccccc2)c(=O)on1C(=O)N1CCCCC1 [Compound 19]	17

Same assay, conditions: Table 2, acyclic ureas; means of three experiments; Na = not active; cited from earlier work

SMILES	IC50 [nM]
Cc1c(C(C)C)c(=O)on1C(=O)NC(C)(C)C [Compound 20]	> 1000
Cc1c(C(C)C)c(=O)on1C(=O)Nc1ccccc1 [Compound 21]	> 1000

Same assay, conditions: Table 3, cyclic amine-derived ureas; means of three experiments; Na = not active; cited from earlier work

SMILES	IC50 [nM]
Cc1c(C(C)C)c(=O)on1C(=O)N1CCc2ccccc21 [Compound 44]	> 1000
Cc1c(C(C)C)c(=O)on1C(=O)N1CCNCC1 [Compound 46]	> 1000

Same assay, conditions: piperidine derivatives; means of three experiments; Na = not active; cited from earlier work

SMILES	IC50 [nM]
Cc1c(C(C)C)c(=O)on1C(=O)N1CCC(C(=O)N(C)C)CC1 [Compound 84]	> 1000
Cc1nnc(C2CCN(C(=O)n3oc(=O)c(C(C)C)c3C)CC2)o1 [Compound 86]	> 1000
Cc1c(C(C)C)c(=O)on1C(=O)N1CCC(C#N)(c2ccccc2)CC1 [Compound 91]	> 1000
Cc1c(C(C)C)c(=O)on1C(=O)N1CCC(O)(c2ccccc2)CC1 [Compound 92]	> 1000
